Measured values reported in patent publication US6221870A, “Ergoline derivatives and their use as somatostatin receptor antagonists” (Novartis AG, priority 1997, dated 2001).

Assays:
[1] = target: T1, native rat sst1 receptors (Rattus norvegicus, UniProt P28646); assay: affinity for native rat sst1 receptors (radioligand binding); details: read-out: pIC50, affinity for native rat sst1 receptors (converted)
T1 construct: native rat sst1 receptors
Excerpt: (§1) In particular the agents of the invention bind to somatostatin receptors. More particularly they are selective antagonists at Somatostatin sst1 receptors, previously called SSTR-1 receptors (see Hoyer et al., TIPS, 1995, 16; 86-88), as determined in radioligand binding and second messenger studies [see for example K Kaupmann et al., FEBS LETTERS 1993, 331: 53-59].
(§2) For all above indications the preferred compound is the compound of example 1 below.

mice = assay: Matched Pairs Situation test in mice; type: in vivo, mouse; details: for lowering of aggressive behavior (Matched Pairs Situation test), standard drugs: 3-30 mg/kg s.c.; for potency compared with the compound of example 1, Matched Pairs Situation test: standard drugs at 3-30 mg/kg s.c.
[2] = target: T2, native human sst1 receptors (Homo sapiens, UniProt P30872); assay: affinity for native human sst1 receptors (radioligand binding); details: read-out: pIC50, affinity for native human sst1 receptors (converted)
T2 construct: native and recombinant human sst1 receptors
T2 sequence (P30872 whole entry): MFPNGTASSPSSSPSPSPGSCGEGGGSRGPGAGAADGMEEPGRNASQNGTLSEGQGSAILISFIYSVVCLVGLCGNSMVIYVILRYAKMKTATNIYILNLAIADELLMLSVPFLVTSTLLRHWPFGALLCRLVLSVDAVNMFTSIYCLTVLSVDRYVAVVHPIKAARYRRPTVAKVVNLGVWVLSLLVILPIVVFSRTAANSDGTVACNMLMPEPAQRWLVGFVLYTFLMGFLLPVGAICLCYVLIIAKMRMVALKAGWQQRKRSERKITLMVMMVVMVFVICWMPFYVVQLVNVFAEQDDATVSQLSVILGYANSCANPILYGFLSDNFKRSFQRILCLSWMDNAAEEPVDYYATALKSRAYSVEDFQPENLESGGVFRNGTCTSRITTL
Excerpt: as §1, §2

intruder mouse = intruder mouse test; type: in vivo; details: for potency compared with the compound of example 1, intruder mouse test: standard drugs at 3-30 mg/kg s.c.
[3] = system: neurotransmitter receptors; assay: activity for a wide range of neurotransmitter receptors; type: binding
Excerpt: as §2

[4] = target: T3, recombinant human sst1 receptors (Homo sapiens, UniProt P30872); assay: affinity for recombinant human sst1 receptors (radioligand binding); details: read-out: pIC50, affinity for recombinant human sst1 receptors (converted)
T3 construct: expressed in transfected cells
T3 sequence (P30872 whole entry): as above
Excerpt: as §1, §2

[5] = known drawback; cited from earlier work

T1 sequence (P28646 whole entry): as the sequence (P30872 whole entry) above, with S8P, S11T, P16S, S20G, G25V, G26C, A32S, A45S, T385A, T389S counted along it

Compound | IC50 [1] [nM] | aggressive behavior in the Matched Pairs Situation test (mice; 3-30 mg/kg p.o.) | IC50 [2] [nM] | social withdrawal in the intruder mouse test (intruder mouse; 3-30 mg/kg p.o.) | activity for a wide range of neurotransmitter receptors [3] | IC50 [4] [nM] | therapeutic window [5] | lowering of aggressive behavior (Matched Pairs Situation test), standard drugs (mice) | potency compared with the compound of example 1, Matched Pairs Situation test (mice) | potency compared with the compound of example 1, intruder mouse test (intruder mouse)
CN1C[C@H](C(=O)N2CCN(c3cccc(=O)n3C)CC2)C[C@@H]2c3cccc4[nH]c(Br)c(c34)C[C@H]21 [Example 1, [5R, 8R, 10R]-2-Bromo-9,10-dihydro-lysergic-acid-4-(1-methyl-1H-pyrid-6-on-2-yl)-piperazine-amide] | 0.2 | clearly lowers aggressive behavior | 1 | reverses social withdrawal | without significant activity | 1.58 |  |  |  | 
NC(=O)N1c2ccccc2C=Cc2ccccc21 [carbamazepine] |  |  |  |  |  |  | narrow therapeutic window | These effects are also observed | less potent | less potent
lithium |  |  |  |  |  |  | narrow therapeutic window | These effects are also observed | less potent | less potent
